First: O=C(O)C(CCSc1ccccc1)Oc1ccc(C(F)(F)F)cc1 (centres undefined)
Second: CCN(CC)C(=O)C(C)Oc1cc(-c2ccccc2)nc2ccccc12 (centres undefined)
The melting point of the first is lower: 108 to 110 °C for the first, 124 °C for the second.

First: CC1CCN(CC#CCN2C(=O)c3cccc4c3N(CC4)c3ccc(Br)cc32)CC1
Second: O=C1c2ccccc2C(O)N1CCCN1CCN(c2ccc(O)cc2)CC1 (centres undefined)
The melting point of the first is lower: 154 to 155 °C for the first, 190 °C for the second.

First: O=C(c1ccccc1)C(Cc1ccc(Cl)cc1)c1cccnn1 (centres undefined)
Second: O=C(NC(Cc1ccccc1)C(=O)O)OCc1ccc(COCc2ccccc2)cc1 (centres undefined)
The melting point of the first is higher: 140 to 142 °C for the first, 78.3 to 79.9 °C for the second.

First: Cn1nnnc1-n1cc(C(=O)O)c(=O)c2cc(F)c(Cl)nc21
Second: O=c1[nH]ncc2c1c(O)nc1cc(Cl)ccc12
The melting point of the first is lower: 213 to 220 °C for the first, greater than 350 °C for the second.

First: O=C(COc1ccc(Cl)cc1)N1Cc2ccc(C(=O)C(Cl)(Cl)Cl)n2Cc2ccccc21
Second: COC(=O)c1c(C(=O)OC)c2sc3ccccc3n2c1-c1ccc(OC)cc1
The melting point of the first is lower: 165 to 167 °C for the first, 167 to 168 °C for the second.

First: CC(=O)OCc1cc2cc(-c3ccc(OC(F)(F)F)cc3)ccc2n1Cc1ccc(C)cc1
Second: Clc1c(-c2ccc(OCc3ccccc3)cc2)[nH]c2ccc(OCc3ccccc3)cc12
The melting point of the first is lower: 125 to 126 °C for the first, 157 to 160 °C for the second.

First: Cc1ccc2[nH]cc(C3C(=O)N(C)C(=O)C3c3cn(C)c4ccc(C)cc34)c2c1 (centres undefined)
Second: CC(NS(C)(=O)=O)c1ccc2[nH]cc(CCN3C(=O)c4ccccc4C3=O)c2c1 (centres undefined)
The melting point of the first is lower: 103 to 105 °C for the first, 203 to 205 °C for the second.

First: CC(CCC(F)(F)C(C)(C)O)C1CCC2C3CCC4=CC(=O)C=CC4(C)C3CCC12C (centres undefined)
Second: CC(C)(CO)C1CCN(CC#Cc2cc(C(F)(F)F)cc(C(F)(F)F)c2)CC1
The melting point of the first is higher: 176 to 177 °C for the first, 85 to 87 °C for the second.

First: Cc1cc(-c2nc3cc(C(C)(C)C)c(Cl)nn3c2-c2ccnc(N)c2)ccc1F
Second: CSc1ccc2nc(-c3cccc(C)c3)c(-c3ccnc(NC4CCCCC4)c3)n2n1
The melting point of the first is higher: 232 to 233 °C for the first, 150 to 151 °C for the second.

First: Cc1cccc(C(=O)NC(C)C)c1N
Second: Cc1cc(C)c(C(=O)Oc2ccccc2)c(O)c1C
The melting point of the first is higher: 149 to 151 °C for the first, 74 °C for the second.

First: O=Cc1ccc(CN2C(=O)c3ccccc3C2=O)c2ccccc12
Second: CN(Cc1ccccc1)C(=O)c1cc2ccccc2c(-c2ccccc2Cl)n1
The melting point of the first is higher: 190 to 192 °C for the first, 128 °C for the second.

Compared with `CC(=O)Oc1ccc(Cc2ccc(C(=O)O)nc2)cc1`, `CCCc1c(OC(C(=O)O)c2ccc(OC)cc2)ccc(C(C)=O)c1O` (centres undefined) is higher in melting point: 116 to 119 °C for the first, 154 to 156 °C for the second.

First: COc1ccc(-c2cc(C)cn2-c2ccc(S(N)(=O)=O)cc2)cc1Cl
Second: CS(=O)(=O)c1ccc(C2=C(c3ccccc3)C(=O)OC23CCCC3)cc1
The melting point of the first is higher: 160 to 163 °C for the first, 142 to 143 °C for the second.

First: COC(=O)c1cc2ccccc2nc1C(=O)OC
Second: CCc1cc(OCc2nc3ccccc3o2)c(=O)[nH]c1C
The melting point of the first is lower: 105 to 106 °C for the first, 198 to 200 °C for the second.

First: Cc1cccc(Nc2nc(-n3nc(C)cc3C)nc3ccccc23)c1
Second: c1coc(-c2ccc3c(n2)[nH]c2ccccc23)c1
The melting point of the first is higher: 249 to 250 °C for the first, 208 to 210 °C for the second.

Compared with `C=CC1(S(=O)(=O)CCS(=O)(=O)CC(O)CS(=O)(=O)CCCl)C=CC=CC1` (centres undefined), `CCOC(=O)C1=C(COCC(=O)O)NC(C)=C(C(=O)OC)C1c1ccccc1Cl` (centres undefined) is lower in melting point: greater than 200 °C for the first, 150 to 154 °C for the second.

First: O=Cc1nn(-c2ccc(Cl)cc2)c2c1CCCC2
Second: O=[N+]([O-])c1ccc(CN2CCCCc3ncccc32)cc1
The melting point of the first is lower: 117 to 118 °C for the first, 231 to 233 °C for the second.

Compared with `O=C(O)c1ccc(-c2ccc(-c3cc(-c4ccc(-c5ccc(C(=O)O)cc5)cc4)cc(-c4ccc(-c5ccc(C(=O)O)cc5)cc4)c3)cc2)cc1`, `O=C(O)c1ccc(OCCCCCCc2ccc3cc(OCc4ccccc4)c(OCc4ccccc4)cc3c2)cc1` is lower in melting point: 326 °C for the first, 153 to 155 °C for the second.

Compared with `COc1cc2c(Nc3ccc(Sc4nccn4C)c(Cl)c3)c(C#N)cnc2cc1N1CCC(N2CCN(C)CC2)CC1`, `CNC(=O)c1ccccc1Nc1nc(Nc2ccc3c(c2)N(C)C(=O)CCC3)ncc1Cl` is higher in melting point: 235 to 237 °C for the first, 292 to 294 °C for the second.

First: O=C1CNc2ncc(-c3cnc4[nH]ccc4c3)nc2N1CCC1CCOCC1
Second: CCn1nc(-c2cnc3[nH]cc(C(=O)N[C@H](C)C(=O)N4CC(C#N)C4)c3n2)c2ccc(Cl)cc21
The melting point of the first is higher: 255 to 258 °C for the first, 248 to 255 °C for the second.

First: NC(=NCC(F)(F)F)Nc1ccnc(CCCCc2c[nH]cn2)n1
Second: O=c1nc(NCCCCc2ncccc2Cl)[nH]cc1C(O)c1ccncc1 (centres undefined)
The melting point of the first is higher: 191 to 193 °C for the first, 90 °C for the second.

First: O=C(Nc1ccccc1)C12CC3CC(CC(C3)C1)C2
Second: O=C(NC1CCN(Cc2ccccc2)C1)C12CC3CC(CC(C3)C1)C2 (centres undefined)
The melting point of the first is higher: 196 to 199 °C for the first, 130 to 132 °C for the second.

First: Fc1c(F)c(C(F)(F)F)c(F)c(F)c1Nc1ccc(-c2ccc(Nc3c(F)c(F)c(C(F)(F)F)c(F)c3F)cc2)cc1
Second: CCN1C(=O)CCCc2ccc(Nc3ncc(Cl)c(Nc4c(F)cccc4C(=O)NC)n3)cc21
The melting point of the first is lower: 179 to 180 °C for the first, 228 to 235 °C for the second.

First: CCOCCOC(=O)C1=C(C)NC(C(OCC)OCC)=C(C(=O)OCC)C1c1cccc([N+](=O)[O-])c1 (centres undefined)
Second: CCOC(=O)C1=C(C)Nc2nc(N(C)C)nc(N(C)C)c2C1c1cccc([N+](=O)[O-])c1 (centres undefined)
The melting point of the first is lower: 99 to 100 °C for the first, 149 °C for the second.

First: COc1ccccc1N=Nc1ncc[nH]1
Second: COc1cc2c(cc1OC)C(c1ccccc1)N1C(=O)CNC(=O)C1C2 (centres undefined)
The melting point of the first is lower: 152 to 153 °C for the first, 265 to 267 °C for the second.

First: C=CC1(CO)OC(OC2C(COCc3ccccc3)OC(OC)C(OCc3ccccc3)C2OCc2ccccc2)C(OC(C)=O)C(OC)C1O (centres undefined)
Second: COc1cccc(CCc2c(CCNC(=O)CCCCC(=O)NCCc3ccccc3)ccc(OC)c2OC)c1
The melting point of the first is lower: 53 °C for the first, 150 to 151 °C for the second.

Compared with `CC(C)(C)OC(=O)NC[C@H]1CC[C@H](CI)CC1`, `CNCC1Cc2cc(Cl)cc(C3CCCCC3)c2O1` (centres undefined) is higher in melting point: 81 to 83 °C for the first, 125 to 128 °C for the second.

First: CCCCCCCCCCCCCCCCCCN(C)c1ccc([N+](=O)[O-])cc1C(=O)O
Second: Cc1ccc([N+](=O)[O-])cc1-c1ccccc1
The melting point of the first is higher: 108 to 109 °C for the first, 69 to 71 °C for the second.

First: Clc1ncc(C2CCCCC2)c2ccccc12
Second: CC(C)(C1CCCCC1)C(NC(=O)c1ccc(Cl)cc1)Nc1c(Nc2cccnc2)c(=O)c1=O (centres undefined)
The melting point of the first is lower: 53 to 55 °C for the first, 275 to 276 °C for the second.

Compared with `CN1CCN(C2(CNC=O)CCCCC2)CC1`, `C=C(C)C(=O)NC1(C(=O)O)CCCCC1` is higher in melting point: 97 to 98 °C for the first, 176 to 178 °C for the second.

Compared with `Cc1cc2c(C#N)ccc(C#N)c2cc1C`, `Cc1cc2oc(=O)c3c(c2cc1Cl)CCNC3` is lower in melting point: 225 to 227 °C for the first, 184 to 185 °C for the second.

First: CCOc1nsnc1O
Second: CCOC(=O)c1ccc(C=C(C)C=O)cn1
The melting point of the first is higher: 104 to 106 °C for the first, 72 to 73 °C for the second.

First: COc1ccc(OCCOS(N)(=O)=O)cc1
Second: COCCOc1ccc(/C=C/C(=O)O)c(OCc2nc(-c3ccccc3)oc2C)c1
The melting point of the first is lower: 84 to 87 °C for the first, 194 to 196 °C for the second.

Compared with `N#CC1=C(c2ccccc2)Nc2n[nH]cc2C1c1cccc2ccccc12` (centres undefined), `N#CCc1cccc2oc(Br)c(-c3ccccc3)c12` is lower in melting point: 174 °C for the first, 131 to 133 °C for the second.

Compared with `Cc1ccc(C=CC2CCC(c3ccccc3)(N(C)C)CC2)cc1` (centres undefined), `CN1CCC(Oc2ccccc2)(c2ccccc2)CC1` is lower in melting point: 130 to 145 °C for the first, 99 to 101 °C for the second.

Compared with `Cc1nc2c(O[C@@H]3c4ccccc4C[C@H]3O)cc(C(=O)O)cc2n1C` (relative stereo), `CCN1C(=O)CC(C)(C)c2ccc(-c3nc4ccccc4[nH]3)cc21` is lower in melting point: 306 °C for the first, 257 to 259 °C for the second.

Compared with `Cc1nc2nc(S(=O)(=O)Cl)nn2c(C)c1Cl`, `CC(C)n1cnc2c(Nc3ccc(F)cc3)nc(Cl)nc21` is higher in melting point: 131 to 133 °C for the first, 154 °C for the second.

First: CCOC(=O)C(=CNC1CC1)C(=O)c1c(F)cc(F)c(F)c1C
Second: CCOC(=O)c1c[nH]c2c1-c1ncccc1CCC2
The melting point of the first is lower: 69 to 72 °C for the first, 96 to 98 °C for the second.

First: CC(C)c1ccc2nc3ccc(C(=O)OCC#N)cn3c(=O)c2c1
Second: CC(C)CCN1N=C(c2ccc(F)cc2)c2cc(Cl)ccc2CS1(=O)=O
The melting point of the first is higher: 186 to 188 °C for the first, 123 to 124 °C for the second.

Compared with `Cc1cc(I)ccc1Nc1c(-c2nnc(N)o2)ccc(F)c1F`, `Cc1ccc(-c2cncnc2Cl)cc1` is lower in melting point: 184 °C for the first, 67 to 70 °C for the second.

First: O=C(CCCCN1CCC(Cc2ccccc2)CC1)c1ccc2c(c1)C(=O)c1cc(C(=O)CCCCN3CCC(Cc4ccccc4)CC3)ccc1-2
Second: CN(C(CCn1c(=O)[nH]c2cscc2c1=O)C(=O)NO)S(=O)(=O)c1ccc(Oc2ccccc2)cc1 (centres undefined)
The melting point of the first is lower: 124 to 126 °C for the first, 135 to 137 °C for the second.

Compared with `C[C@@H](c1ccc(-c2c[nH]nn2)cc1)[C@](O)(Cn1cncn1)c1ccc(F)cc1F`, `OCc1ccc(-c2ccc(OC3SCC(O)C(O)C3O)cn2)cc1` (centres undefined) is higher in melting point: 121 °C for the first, 215 °C for the second.

Compared with `COc1cc(OC)nc(NS(=O)(=O)C(C#N)C(C)C)n1` (centres undefined), `COc1ccc(CNc2nc(SC)ncc2C=O)cc1Cl` is higher in melting point: 91 to 93 °C for the first, 124 to 125 °C for the second.

First: O=CNCc1c[nH]c(=S)n1[C@H]1CCc2c(F)cc(F)cc2C1
Second: O=C(NC[C@H]1CN(c2ccc3c(c2)CCCc2cnoc2-3)C(=O)O1)c1ccccc1
The melting point of the first is higher: 245 to 246 °C for the first, 240 to 245 °C for the second.

Compared with `CC1=CC(=NO)CC(c2cccc(Cl)c2)N1` (centres undefined), `CNc1ccc(/C=C/c2c(F)cccc2Cl)cc1` is lower in melting point: 88 °C for the first, 43 to 45 °C for the second.

Compared with `CN1CCN(C2=Nc3ccccc3C(O)(c3ccccc3)C2(C)C)CC1` (centres undefined), `CN(C)c1ccc(C=Nn2ccnc2CCc2ccccc2)cc1` is lower in melting point: 268 to 269 °C for the first, 153 to 154 °C for the second.

First: O=c1c2c(oc3c1nnn3Cc1ccccc1)CSC2
Second: COc1ccccc1S(=O)(=O)N(C)c1cccc2cc(C3=NCC(CC(=O)Nc4nnc[nH]4)S3)[nH]c12 (centres undefined)
The melting point of the first is higher: 210 to 212 °C for the first, 208 to 209 °C for the second.

First: c1c(N2CCCC2)nc(N2CCNCC2)nc1N1CCCC1
Second: O=C1CN2Cc3cccc(OCCCC(=O)N(CCO)CCCCC4CCCCC4)c3N=C2N1
The melting point of the first is higher: 152 to 160 °C for the first, 110 to 111 °C for the second.

First: COc1ccc(CCc2ccc(NC(=O)C(=O)c3ccccc3O)cc2)cc1OC
Second: O=C(NCCCOc1ccncc1)c1cccnc1
The melting point of the first is higher: 124 to 125 °C for the first, 117 to 119 °C for the second.

For `OCC1OC(n2c(Cl)nc3ccc(Br)cc32)C(O)C1O` (centres undefined), the melting point was 152 to 153 °C.

Reference: a melting point compilation (Tetko et al.; mined from patent text by program, amines drawn as free bases though some values may be those of a salt)
